Data: patent US11298569B2 (priority 2016, dated 2022)
Read-outs that look alike come from different tables or passages of the source.

Key:
[1] = test system: Cx3cr1-cre::Panx1^flx/flx mice; experiment: Naloxone-precipitated morphine withdrawal behaviours in mice; type: in vivo, mouse; details: for morphine withdrawal: morphine-dependent Panx1-expressing mice, 15 minutes prior to naloxone
Description: (§1) Control rats and mice received saline and were challenged with naloxone on day 5. […] Jumping, teeth chattering, wet-dog shakes, headshakes, and grooming behaviors were evaluated at 5-min intervals for a total test period of 30 minutes and a standardized score of 0 to 3 was assigned to each behavior. Allodynia, piloerection, salivation, ejaculation, and tremorsitwitchina were also evaluated, with one point given to the presence of the behavior during each 5-min interval. All signs were counted and compiled to yield a cumulative withdrawal score. Rats and mice were weighed before and after naloxone challenge to calculate weight loss. In all behavioral studies, experimenters were blind to the drug treatments and genetic profile of rats and mice.
(§2) All control animals received intrathecal saline.

morphine-dependent rats = experiment: Naloxone-precipitated morphine withdrawal behaviours in rats; type: in vivo, rat; details: for morphine withdrawal: morphine-dependent rats
Description: as §1, §2
Both mefloquine and probenecid were reconstituted in β-cyclodextrin (Sigma), and control animals received systemic β-cyclodextrin.

Panx1 [2] = molecular target: T1, Panx1 (Mus musculus, UniProt Q9JIP4); type: cell-based; details: for naloxone potentiation of Panx1 activation (YO-PRO-3 dye uptake): morphine-treated BV-2 microglial cultures, 30 minutes post-BzATP; for BzATP-evoked YO-PRO-1 uptake: morphine-treated microglia, BzATP 150 μM, drug 10 μM
T1 construct: endogenous in cells; host or cells: BV-2 microglia
T1 sequence (Q9JIP4 whole entry): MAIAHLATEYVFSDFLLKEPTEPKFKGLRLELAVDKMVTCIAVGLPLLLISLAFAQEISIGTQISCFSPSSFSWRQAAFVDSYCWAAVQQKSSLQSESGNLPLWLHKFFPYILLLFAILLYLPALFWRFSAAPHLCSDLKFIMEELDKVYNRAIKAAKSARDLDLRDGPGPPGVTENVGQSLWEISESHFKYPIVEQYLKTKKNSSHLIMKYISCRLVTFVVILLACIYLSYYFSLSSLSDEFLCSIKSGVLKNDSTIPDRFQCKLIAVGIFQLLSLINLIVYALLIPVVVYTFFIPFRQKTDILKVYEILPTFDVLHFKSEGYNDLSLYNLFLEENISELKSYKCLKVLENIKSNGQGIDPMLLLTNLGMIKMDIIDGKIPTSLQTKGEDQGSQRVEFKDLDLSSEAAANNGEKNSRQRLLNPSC
Description: (§3) BV2 microglia were maintained in DMEM media (Gibco) containing 10% FBS and 1% Pen-Strep at 37° C. with 5% CO2.
Following a 5-min baseline recording, cells were stimulated with BzATP (150 μM, Sigma) and dye-uptake was recorded for 30 minutes. Cell viability was assessed immediately after 30 minute recording by application of ionomycin (1 μM, Sigma). YO-PRO-1 dye fluorescent emission (491/509) or YO-PRO-3 dye fluorescent emission (612/631) was detected at 37° C. using a FilterMax F5 plate reader (Molecular Devices). Drugs used include ^10panx, ^scrpanx, and naloxone, all of which were used at 10 μM. Drugs were bath applied in YO-PRO-1 dye and incubated at 37° C. for 10 minutes prior to baseline recording. Fluorescent emission at 30 minutes post BzATP application was calculated as percent change from baseline. Representative images of BV-2 YO-PRO-1 dye uptake were taken at room temperature using an inverted microscope (Nikon Eclipse Ti C1S1 Spectral Confocal) with images take at 5 minute intervals for 30 minutes using EasyRatioPro software (PTI). To assess Panx1 function in Cx3cr1::Panx1^flx/flx adult microglia, neuron-glia mixture culture was isolated from adult mice treated with tamoxifen or vehicle for 5 days, then plated in DMEM containing 10% FBS and 1% Pen-Strep and incubated overnight at 37° C. with 5% CO2. Cells were washed and incubated with DAPI (1:10,000) for 10 minutes, and then incubated in YO-PRO-3 dye. Microglia were identified from mixed adult neuronal-glia culture by endogenous expression of eYFP. Fluorescence of individual eYFP positive microglia was recorded for a 5 minute baseline period and then for 30 minutes post BzATP stimulation (300 μM). Fluorescent emission at 30 minutes was calculated and as percent change from baseline.

Panx1 [3] = molecular target: T1, Panx1; type: cell-based; details: for ATP release: morphine-treated cultured microglia stimulated with naloxone
Description: as §3
ATP level were detected using bioluminescence by combining samples with recombinant firefly luciferase and its substrate D-luciferin (ATP Determination Kit, Life Technologies). The ATPase inhibitor (ARL67156, 1 μM, Sigma) was added to the ECS or ACSF to decrease breakdown of ATP, and samples were incubated in medium for 30 minutes prior to naloxone stimulation to reduce mechanically-induced ATP release. Samples were stimulated with naloxone (10 μM) for 30 minutes, at which point the supernatant was collected. Samples were read immediately after collection using a FilterMax F5 plate reader at 28° C. For experiments for BV-2 microglial cultures, cells were incubated in ^10panx (10 μM), ^scrpanx (10 μM), probenecid (1 mM), mefloquine (40 μM) or ECS for 10 minutes prior to naloxone stimulation. Final ATP measurement was expressed relative to control samples (saline treated and ECS stimulated) from the same plate. For ATP release in spinal cord slices, tamoxifen or vehicle treated Cx3cr1::Panx1^flx/flx mice were perfused with ice-cold oxygenated sucrose-substituted ACSF, and the spinal cord isolated by hydraulic extrusion. The lumbar segment of the spinal cord was sliced into 300 μm sections, and incubated in oxygenated 37° C. ACSF for 1 hour. Spinal cord slices were then transferred to room temperature oxygenated ACSF and stimulated with naloxone. For quantification, ATP release was normalized to total protein of each sample.

Panx1 [4] = experiment: Western blot of total Panx1 protein in rat primary microglia cultures; type: cell-based; details: morphine for 5-days
Description: (§4) Rat spinal cord tissue was rapidly dissected and homogenized in RIPA buffer containing 20 mM TrisHCl (pH 7.5), 150 mM NaCl, and 0.5% Tween-20. Cultured microglia were harvested in 150 μL lysis buffer containing 50 mM TrisHCl, 150 mM NaCl, 10 mM EDTA, 0.1% Triton-X, and 5% Glycerol. Both RIPA and lysis buffers contained protease inhibitors (Sigma) and phosphatase inhibitors (GBiosciences). Total protein was measured using a BioRad RC DC Protein Assay Kit (BioRad) or Pierce BCA Protein Assay Kit (Thermo Scientific). Samples were heated at 95° C. for 5-min in loading buffer (350 mM Tris, 30% glycerol, 1.6% SDS, 1.2% bromophenol blue, 6% β-mercaptoethanol) then electrophoresed on a precast SDS gel (4-12% Tris-HCl, BioRad) and transferred onto a nitrocellulose membrane. […] Membranes were washed and incubated for 2 h at 20-25° C. in fluorophore-conjugated secondary antibodies (anti-rabbit and anti-mouse conjugated IR Dyes 1:5000, Mandel Scientific; or Fluorescent TrueBlot anti-rabbit IgG Dylight 1:1000, Rockland) then quantified by direct detection of secondary antibody fluorescence at 680 and 800 nm (LICOR Odyssey CLx). Band intensity was quantified using Image J, normalized to β-actin and expressed relative to control samples. […]

Panx1 [5] = experiment: Western blot of total Panx1 protein in BV-2 microglial cell line; type: cell-based; details: morphine for 5-days
Description: as §4

[6] = test system: CD11b-positive cells in the lumbar spinal cords; details: mouse
Description: Mice with microglial specific deletion of Panx1 were generated using a Cre-loxP system. […] Progeny genotype was screened using PCR, and homozygous Panx1^flx/flx and Cx3cr1-cre mice were bred and backcrossed for 8 generations to yield the conditional Cx3cr1::Panx1^flx/flx knock-out mice. To induce Cre recombination, mice were injected intraperitoneally with 1 mg per day tamoxifen (Sigma) for 5 days. Wild-type mice were littermate mice that received vehicle injections (sunflower oil with 10% ethanol) for 5 days, while tamoxifen-related effects were controlled for using Panx1^flx/flx littermate mice that received 5 days of tamoxifen injections.

Q: `CCN(CC)c1ncnc2c1ncn2[C@@H]1O[C@H](COP(=O)(O)OP(=O)(O)C(Br)(Br)P(=O)(O)O)[C@@H](O)[C@H]1O` [ARL67156] was tested. Which morphine withdrawal ([1]; intrathecal 10 nmoles) did it give?
A: exacerbated

Q: What does the source list for `Nc1ncnc2c1ncn2[C@@H]1O[C@H](COP(=O)(O)OP(=O)(O)OP(O)(O)=S)[C@@H](O)[C@H]1O` [ATPγS]?
A: withdrawal behaviors ([1]; morphine-treated Panx1-deficient mice, intrathecal 100 μM together with naloxone challenge): restored a spectrum of withdrawal behaviors; withdrawal behaviors ([1]; saline-treated Panx1-deficient mice, intrathecal 100 μM): not observed

Q: With `OC(c1cc(C(F)(F)F)nc2c(C(F)(F)F)cccc12)C1CCCCN1` (stereo not shown) [mefloquine] as the compound, how does the morphine withdrawal (morphine-dependent rats; systemic 45 mg/kg i.p. 1-hour prior to naloxone challenge) read?
A: significantly ameliorated

Q: What about the “naloxone potentiation of Panx1 activation (YO-PRO-3 dye uptake)” value (Panx1 [2]) of the same compound?
A: blocked

Q: What about the ATP release (Panx1 [3]; mefloquine 40 μM) of the same compound?
A: suppressed

Q: `CN1CC[C@]23c4c5ccc(O)c4O[C@H]2[C@@H](O)C=C[C@H]3[C@H]1C5` [morphine] was tested. Which “total Panx1 protein levels” value (Panx1 [4]) did it give?
A: marked increase

Q: And the “total Panx1 protein levels” value (Panx1 [5])?
A: marked increase

Q: `C=CCN1CC[C@]23c4c5ccc(O)c4O[C@H]2C(=O)CC[C@@]3(O)[C@H]1C5` [naloxone] was tested. Which “BzATP-evoked YO-PRO-1 uptake” value (Panx1 [2]) did it give?
A: further potentiated

Q: What about the “ATP in microglial supernatant” value (Panx1 [3]; naloxone applied to microglia in culture (10 μM, 30 minutes)) of the same compound?
A: evoked the release of ATP

Q: Which morphine withdrawal (morphine-dependent rats; systemic 50 mg/kg i.p. 1-hour prior to naloxone challenge) does the source give for `CCCN(CCC)S(=O)(=O)c1ccc(C(=O)O)cc1` [probenecid] here?
A: significantly ameliorated

Q: And the “naloxone potentiation of Panx1 activation (YO-PRO-3 dye uptake)” value (Panx1 [2])?
A: blocked

Q: What about the ATP release (Panx1 [3]; probenecid 1 mM) of the same compound?
A: suppressed

Q: What does the source list for `CC/C(=C(\c1ccccc1)c1ccc(OCCN(C)C)cc1)c1ccccc1` [tamoxifen]?
A: morphine withdrawal responses ([1]; tamoxifen given to Panx1^loxp/loxp mice without inducible Cre-recombinase): does not affect morphine withdrawal; recombination in Cre^ER reporter eYFP / CD11b-positive cells [6]: 95±3.1%

Q: How did the “BzATP-evoked YO-PRO-1 uptake” value (Panx1 [2]) turn out when FSVYWAQADR (scrPanx) [^scrpanx] was run?
A: unaffected

Q: WRQAAFVDSY (10panx) [^10panx] was tested. Which withdrawal behaviours (morphine-dependent rats; rats after 5-days of morphine, intrathecal 10 μg, 60-minutes prior to naloxone challenge) did it give?
A: significantly attenuated

Q: What about the naloxone-precipitated morphine withdrawal ([1]; Panx1-expressing mice, intrathecal 10 μg before naloxone challenge) of the same compound?
A: significantly attenuated

Q: And the naloxone-precipitated morphine withdrawal ([1]; mice lacking microglial Panx1, intrathecal 10 μg)?
A: did not further reduce withdrawal

Q: And the “BzATP-evoked YO-PRO-1 uptake” value (Panx1 [2])?
A: blocked

Q: And the “naloxone-evoked release of ATP” value (Panx1 [3]; cultured microglia, ^10panx 10 μM for 10 minutes prior to naloxone)?
A: blocked

Q: How did the morphine withdrawal ([1]; intrathecal 10 units) turn out when apyrase was run?
A: striking reduction in withdrawal
